Assay results from patent US20160311788A1, “Antifouling Compounds And Use Thereof” (National University of Singapore, priority 2008, published 2016).
Values after ≈ are worked out from the molar mass of the structure shown.

What was measured:
[1] = system: Stage II nauplii of Balanus amphitrite; experiment: barnacle toxicity assay; format: in vivo
Procedure: (§1) Pure compounds were suspended in DMSO and sonicated to obtain a stock solution of 50 mg ml^−1 in DMSO. This stock solution is stored at −20° C. in 4 ml amber screw cap vials. For the bioassays, a small volume of stock solution was added to 1 μm filtered seawater in a glass scintillation vial. This suspension was then sonicated around 10 minutes. Serial dilutions were generated to the required range of concentrations. Serial dilution of the equivalent amounts of DMSO in seawater was used as the control.
(§2) The barnacle bioassay method used follows from the method first introduced by Rittschof et al. (1992), and subsequently by other authors (Willemsen et al., 1998). This method is now standard practice for many antifouling screening of novel compounds.
Toxicity assays were modified from Rittschof et al. (1992). Stage II naupliar larvae used in tests were obtained from Balanus amphitrite adults collected from inter-tidal rock walls at Kranji mangrove, Singapore. Larvae were collected from a container of adults by attraction to a point source of light and transferred to 500 ml of fresh seawater. Next, larvae were re-concentrated with a fiber optic light and added to assays.
Duplicate assays were conducted in 2 ml glass vials (La Pha Pack® PN 11-14-0544) in 1 ml of filtered seawater for 22 to 24 hours. The assays were repeated for confirmation. There were two sets of controls, a blank control consisting of 3 tubes of seawater only, and DMSO control consisting of the equivalent dilution series with DMSO without compound). For the compounds, there were 3 tubes of each for each test concentration. The assay was initiated by addition of barnacle naupliar in 50 μl of seawater. After 22 to 24 hours of incubation at 25-27° C. solutions containing test animals were transferred to a Bogorov tray and scored as living or dead. Moribund larvae were scored as dead. Results were confirmed by repeating the assay. Data were combined and the concentration that caused 50% mortality (LD50) was calculated by probit analysis using a basic computer program (Libermann, 1983). If data were not appropriate for probit analysis, the LD50 was estimated from graphed data.

[2] = system: cyprids of Balanus amphitrite; experiment: barnacle settlement assay; format: in vivo; conditions: for IC50: Amphibalanus amphitrite, 24 h, Table 3(a), concentration that caused 50% settlement inhibition, 24 hours, cyprids, read-out: ED50 (the source's name); for percentage of cyprids that settled: after 24 hours incubation, averaged over two trials
Procedure: as §1, §2
Barnacle settlement assays were based on methodology from Rittschof et al. (1992). Barnacle larvae from field-collected adults were reared on an algal mixture of 1:1 v/v of Tetraselmis suecica and Chaetoceros muelleri at 25° C., at approximately 5×10^5 cells per ml density. On this regime, larvae metamorphose to cyprids in 5 days. These cyprids were aged at 4° C. for 2-3 days, and 45-70% settlement after 24 hours (Willemsen et al., 1998).
Settlement tests were conducted in 7 ml neutral glass vials (Samco® T1 03N1) 34 mm by 23 mm diameter, with 20-40 cyprids per well. Test solutions were made up to twice the required final concentration. 0.5 ml of test solution was added into each well, and cyprids were transferred into each well in 0.5 ml of seawater. Assays were done in triplicate. As before, there were two sets of controls, a blank control consisting 3 tubes of seawater only, and DMSO control consisting of the equivalent dilution series with DMSO without compound. After 24 hours, larvae that had attached and metamorphosed were enumerated and the result expressed as percentage settlement. Larvae not attached were scored as not settled. The assays were repeated and the concentration that caused 50% settlement inhibition (ED50) was determined by pro bit analysis using a basic computer program (Lieberman, 1983), or by estimation from graphed data.

[3] = system: marine bacteria strain S1; experiment: disc inhibition assay, strain S1; format: cell-based, Rhodovulum iodosum; conditions: strain 1, 50 μg of compound per disc
Procedure: (§3) The disc inhibition assay was used. This assay is a conventional method routinely used for screening antibacterial compounds to determine degree of susceptibility to antibacterial compounds. The diameter of the zone of inhibition is proportional to the degree of susceptibility of the bacterial strain. The compounds were tested against 13 strains of marine bacteria isolated from Singapore coastal waters.
(§4) 13 strains of marine bacteria were isolated from fouling communities located in the coastal waters around Singapore. These were characterized in earlier studies and reported in Teo et al. (U.S. patent application Ser. No. 11/265,833) and Choong et al (in prep). In addition, four reference bacterial strains were added tested: Escherichia coli (Strain K12, ATCC 15222), E. coli (strain DH5a), Pseudomonas aeruginosa (strain LMG 12228; ATCC 15692) and P. putida (strain KT2440; ATCC 47054). All the bacteria were also tested against five antibiotics: ampicillin (AMP), tetracycline (TETR), erythromycin (ERY), chloramphenicol (CHL) and streptomycin (STREP).
(§5) Disks comprising the compounds to be tested were prepared as follows. The antibacterial assay, the pure compounds were made up to a concentration of 2 mgml^−1 in DMSO. 25 μl of the stock was pipetted onto each 6 mm sterile disc (Macherey-Nagel #484000) to obtain 50 μg of compound per disc. Equivalent volume of DMSO was used inoculated for the control.
(§6) For all disk inhibition assays, bacterial cultures were grown in marine broth (Pronadisa #1217.00). Sterile swabs dipped into the cultures were used to inoculate Marine Agar plates with a bacterial lawn by smearing the culture over the surface. After inoculating the plates, discs with antibiotics, pharmaceuticals or control blanks were placed on each plate. Each concentration of antibiotic or pharmaceutical was tested with two replicates. After the disks were placed on the agar surface, plates were incubated overnight in the dark at 35° C. After incubation, plates were examined for zones of inhibition or clearing around control and treated disks. The diameter of any zone of clearing or inhibition was measured using Vernier calipers. There were two replicates per treatment, and the average was taken.

[4] = system: marine bacteria strain S3; experiment: disc inhibition assay, strain S3; format: cell-based, Erythrobacter aquimaris; conditions: strain 3, 50 μg of compound per disc
Procedure: as §3, §4, §5, §6

[5] = system: marine bacteria strain S4; experiment: disc inhibition assay, strain S4; format: cell-based, Bacillus algicola; conditions: strain 4, 50 μg of compound per disc
Procedure: as §3, §4, §5, §6

[6] = system: marine bacteria strain S9; experiment: disc inhibition assay, strain S9; format: cell-based, Bacillus algicola; conditions: strain 9, 50 μg of compound per disc
Procedure: as §3, §4, §5, §6

[7] = system: marine bacteria strain S10; experiment: disc inhibition assay, strain S10; format: cell-based, Halobacillus trueperi; conditions: strain 10, 50 μg of compound per disc
Procedure: as §3, §4, §5, §6

[8] = system: marine bacteria strain S14; experiment: disc inhibition assay, strain S14; format: cell-based, Vibrio probioticus; conditions: strain 14, 50 μg of compound per disc
Procedure: as §3, §4
(§7) Disks comprising the compounds to be tested were prepared as follows. The antibacterial assay, the pure compounds were made up to a concentration of 2 mgml^−1 in DMSO. […] Equivalent volume of DMSO was used inoculated for the control.
as §6

[9] = system: marine bacteria strain S16; experiment: disc inhibition assay, strain S16; format: cell-based, Pseudoalteromonas piscicida; conditions: Pseudoalteromonas piscicida, S16, 24 h
Procedure: as §3, §4, §5, §6

[10] = system: marine bacteria strain S17; experiment: disc inhibition assay, strain S17; format: cell-based, Gordonia terrae; conditions: strain 17, 50 μg of compound per disc
Procedure: as §3, §4, §5, §6

[11] = system: marine bacteria strain S18; experiment: disc inhibition assay, strain S18; format: cell-based, Microbacterium esteraromaticum; conditions: strain 18, 50 μg of compound per disc
Procedure: as §3, §4, §7, §6

[12] = system: marine bacteria strain S27; experiment: disc inhibition assay, strain S27; format: cell-based, Tenacibaculum lutimaris; conditions: strain 27, 50 μg of compound per disc
Procedure: as §3, §4, §5, §6

[13] = system: marine bacteria strain S28; experiment: disc inhibition assay, strain S28; format: cell-based, Arthrobacter protophormial; conditions: strain 28, 50 μg of compound per disc
Procedure: as §3, §4, §5, §6

[14] = system: marine bacteria strain S29; experiment: disc inhibition assay, strain S29; format: cell-based, Bacillus hwajinpoensis; conditions: strain 29, 50 μg of compound per disc
Procedure: as §3, §4, §5, §6

[15] = system: marine bacteria strain S30; experiment: disc inhibition assay, strain S30; format: cell-based, Bacillus borophilicus; conditions: strain 30, 50 μg of compound per disc
Procedure: as §3, §4, §5, §6

[16] = Table 3(a), concentration that caused 50% mortality, 22 to 24 hours, Stage II nauplii
[17] = Table 3(b), highest concentration tested 25 μg/ml

Row | SMILES | LD50 [1, 16] [µg/mL] | IC50 [2] [µg/mL] | LD50 [1, 17] [µg/mL] | percentage of cyprids that settled ([2]; 0.2 ug/ml) [%] | percentage of cyprids that settled ([2]; 1 ug/ml) [%] | percentage of cyprids that settled ([2]; 5 ug/ml) [%] | percentage of cyprids that settled ([2]; 25 ug/ml) [%] | also measured
1 | O=C(C(c1ccccc1)c1ccccc1)N1CCC(CCO)CC1 [Compound 9.2] | 49.24 | > 50 |  |  |  |  |  | 
2 | CN1CCC(O)(c2ccccc2)CC1 [Compound 4.4] | 12.35 | 5.98 (≈ 31.3 µM) |  |  |  |  |  | zone of inhibition [3]: −; zone of inhibition [4]: −; zone of inhibition [5]: −; zone of inhibition [6]: −; zone of inhibition [7]: −; zone of inhibition [8]: −; zone of inhibition at 50 µg/disc [9]: 2 to 5 mm; zone of inhibition [10]: −; zone of inhibition [11]: −; zone of inhibition [12]: −; zone of inhibition [13]: −; zone of inhibition [14]: −; zone of inhibition [15]: −
3 | CCCCCCC(CCCC)C(=O)N1CCCCC1 (stereo not shown) [Compound 12.8] |  | < 10 | 3.35 | 25.82 | 8.62 | 0 | 0 | 
4 | CN1CCN(C(=O)C(c2ccccc2)c2ccccc2)CC1 [Compound 4.2, 1-(4-Methylpiperazin-1-yl)-2,2-diphenylethanone] | 14.32 | > 50 |  |  |  |  |  | anti-settlement activity in words [2]: eliminated anti-settlement behaviour
5 | CCCCCCCCCCC(CCCC)C(=O)N1CCCCC1 (stereo not shown) [Compound 12.9] |  |  | >25 | 28.14 | 10.56 | 1.94 | 1.32 | 
